In patent publication US11472803B2, “7-substituted 1-aryl-naphthyridine-3-carboxylic acid amides and use thereof” (Bayer Aktiengesellschaft, priority 2016, dated 2022):

Target: T1, human M2 receptor (Homo sapiens, UniProt P08172)
T1 construct: expressed in transfected cells; host or cells: CHO-DUKX (CHO-DUKX-M2-GIRK)
T1 sequence (P08172 1-466): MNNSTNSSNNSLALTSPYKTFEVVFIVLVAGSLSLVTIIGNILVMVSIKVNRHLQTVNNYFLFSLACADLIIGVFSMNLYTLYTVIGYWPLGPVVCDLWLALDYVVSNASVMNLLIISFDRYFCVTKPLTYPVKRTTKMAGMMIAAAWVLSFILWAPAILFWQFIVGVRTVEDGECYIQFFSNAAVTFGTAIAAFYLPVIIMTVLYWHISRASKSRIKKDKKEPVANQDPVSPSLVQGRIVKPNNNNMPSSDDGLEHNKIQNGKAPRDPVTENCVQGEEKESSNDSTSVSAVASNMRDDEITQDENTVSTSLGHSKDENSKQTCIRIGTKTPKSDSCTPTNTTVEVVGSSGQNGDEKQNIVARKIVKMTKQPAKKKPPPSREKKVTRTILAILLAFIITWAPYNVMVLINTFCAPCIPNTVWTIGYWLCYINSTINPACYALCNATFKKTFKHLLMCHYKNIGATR
Experiment: Functional M2-GIRK1/4 activation test: allosteric potency (EC50) and efficiency at EC20 acetylcholine
Type: cell-based
Settings: CHO-DUKX-M2-GIRK cells; for EC50: voltage-sensitive dye, acetylcholine at EC20, in some cases mean of two or more determinations; for Emax / Efficiency: boosting of the acetylcholine effect at EC20 acetylcholine concentration
How it was run: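 CHO-DUKX cells stably expressing human M2 and GIRK1/4; membrane potential tracked with voltage-sensitive dye at room temperature. Compound added 50 s before acetylcholine at its EC20, then hyperpolarization read 60 s. EC50 (allosteric potency) and efficiency (boost of EC20 ACh effect) from 4-parameter Hill fit.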

SMILES	EC50	Emax	Efficiency
CC(C)(CC(F)(F)F)NC(=O)c1cn(-c2c(F)cc(F)cc2F)c2nc(N3CC[C@H](O)C3)c(F)cc2c1=O [Example 107, 6-Fluoro-7-[(3S)-3-hydroxypyrrolidin-1-yl]-4-oxo-N-(4,4,4-trifluoro-2-methylbutan-2-yl)-1-(2,4,6-trifluorophenyl)-1,4-dihydro-1,8-naphthyridine-3-carboxamide]	3.55 nM	92%	–
CC(C)[C@H](C)NC(=O)c1cn(-c2c(F)cc(F)cc2F)c2nc(N3CC[C@H](O)C3)c(F)cc2c1=O [Example 119, 6-Fluoro-7-[(3S)-3-hydroxypyrrolidin-1-yl]-N-[(2S)-3-methylbutan-2-yl]-4-oxo-1-(2,4,6-tri-fluorophenyl)-1,4-dihydro-1,8-naphthyridine-3-carboxamide]	8.7 nM	100%	–
CC(C)[C@@H](C)NC(=O)c1cn(-c2c(F)cc(F)cc2F)c2nc(N3CC[C@H](O)C3)c(F)cc2c1=O [Example 120, 6-Fluoro-7-[(3S)-3-hydroxypyrrolidin-1-yl]-N-[(2R)-3-methylbutan-2-yl]-4-oxo-1-(2,4,6-tri-fluorophenyl)-1,4-dihydro-1,8-naphthyridine-3-carboxamide]	10.5 nM	96%	–
COC[C@H](NC(=O)c1cn(-c2c(F)cc(F)cc2F)c2nc(N3CC[C@H](O)C3)c(F)cc2c1=O)C(C)C [Example 121, 6-Fluoro-7-[(3S)-3-hydroxypyrrolidin-1-yl]-N-[(2R)-1-methoxy-3-methylbutan-2-yl]-4-oxo-1-(2,4,6-trifluorophenyl)-1,4-dihydro-1,8-naphthyridine-3-carboxamide]	125 nM	100%	–
CC(C)C(NC(=O)c1cn(-c2c(F)cc(F)cc2F)c2nc(N3CC[C@H](O)C3)c(F)cc2c1=O)C(C)C [Example 122, N-(2,4-Dimethylpentan-3-yl)-6-fluoro-7-[(3S)-3-hydroxypyrrolidin-1-yl]-4-oxo-1-(2,4,6-tri-fluorophenyl)-1,4-dihydro-1,8-naphthyridine-3-carboxamide]	3.55 nM	100%	–
O=C(Nc1c(Cl)cccc1Cl)c1cn(-c2c(F)cc(F)cc2F)c2nc(N3C[C@@H](O)[C@H](O)C3)c(F)cc2c1=O [Example 130, N-(2,6-Dichlorophenyl)-7-[(3R,4R)-3,4-dihydroxypyrrolidin-1-yl]-6-fluoro-4-oxo-1-(2,4,6-trifluorophenyl)-1,4-dihydro-1,8-naphthyridine-3-carboxamide]	2.3 nM	96%	–
O=C(NCc1c(Cl)cccc1Cl)c1cn(-c2c(F)cc(F)cc2F)c2nc(N3C[C@@H](O)[C@H](O)C3)c(F)cc2c1=O [Example 132, N-(2,6-Dichlorobenzyl)-7-[(3R,4R)-3,4-dihydroxypyrrolidin-1-yl]-6-fluoro-4-oxo-1-(2,4,6-tri-fluorophenyl)-1,4-dihydro-1,8-naphthyridine-3-carboxamide]	10 nM	99%	–
O=C(Nc1c(Cl)cccc1Cl)c1cn(-c2ccc(F)cc2F)c2ncc(Cl)cc2c1=O [Example 133, 6-Chloro-N-(2,6-dichlorophenyl)-1-(2,4-difluorophenyl)-4-oxo-1,4-dihydro-1,8-naphthyridine-3-carboxamide]	1600 nM	81%	–

Next, values leading:

EC50	Emax	Efficiency	SMILES
31.5 nM	100%	–	CC(C)[C@H](C)NC(=O)c1cn(-c2c(F)cc(F)cc2F)c2nc(N3C[C@@H](O)[C@@H](O)C3)c(F)cc2c1=O [Example 100, 7-[(3R,4S)-3,4-Dihydroxypyrrolidin-1-yl]-6-fluoro-N-[(2S)-3-methylbutan-2-yl]-4-oxo-1-(2,4,6-trifluorophenyl)-1,4-dihydro-1,8-naphthyridine-3-carboxamide]
13.5 nM	100%	–	O=C(N[C@@H](C1CC1)C(F)(F)F)c1cn(-c2c(F)cc(F)cc2F)c2nc(N3C[C@@H](O)[C@@H](O)C3)c(F)cc2c1=O [Example 101, N-[(1S)-1-Cyclopropyl-2,2,2-trifluoroethyl]-7-[(3R,4S)-3,4-dihydroxypyrrolidin-1-yl]-6-fluoro-4-oxo-1-(2,4,6-trifluorophenyl)-1,4-dihydro-1,8-naphthyridine-3-carboxamide]
295 nM	92%	–	COC[C@@H](NC(=O)c1cn(-c2c(F)cc(F)cc2F)c2nc(N3C[C@@H](O)[C@@H](O)C3)c(F)cc2c1=O)C(C)C [Example 102, 7-[(3R,4S)-3,4-Dihydroxypyrrolidin-1-yl]-6-fluoro-N-[(2S)-1-methoxy-3-methylbutan-2-yl]-4-oxo-1-(2,4,6-trifluorophenyl)-1,4-dihydro-1,8-naphthyridine-3-carboxamide]
8.1 nM	100%	–	CC(C)C(NC(=O)c1cn(-c2c(F)cc(F)cc2F)c2nc(N3C[C@@H](O)[C@@H](O)C3)c(F)cc2c1=O)C(C)C [Example 103, 7-[(3R,4S)-3,4-Dihydroxypyrrolidin-1-yl]-N-(2,4-dimethylpentan-3-yl)-6-fluoro-4-oxo-1-(2,4,6-trifluorophenyl)-1,4-dihydro-1,8-naphthyridine-3-carboxamide]
7.5 nM	–	97%	CCC(NC(=O)c1cn(-c2c(F)cc(F)cc2F)c2nc(N3C[C@@H](O)[C@@H](O)C3)c(F)cc2c1=O)C(C)C (stereo partly drawn) [Example 105, 7-[(3R,4S)-3,4-Dihydroxypyrrolidin-1-yl]-6-fluoro-V-[2-methylpentan-3-yl]-6-fluoro-4-oxo-1-(2,4,6-trifluorophenyl)-1,4-dihydro-1,8-naphthyridine-3-carboxamide]
7.2 nM	–	100%	CCC(NC(=O)c1cn(-c2c(F)cc(F)cc2F)c2nc(N3C[C@@H](O)[C@@H](O)C3)c(F)cc2c1=O)C(C)C (stereo partly drawn) [Example 106, 7-[(3R,4S)-3,4-Dihydroxypyrrolidin-1-yl]-6-fluoro-V-[2-methylpentan-3-yl]-6-fluoro-4-oxo-1-(2,4,6-trifluorophenyl)-1,4-dihydro-1,8-naphthyridine-3-carboxamide]
18 nM	100%	–	CC(C)(NC(=O)c1cn(-c2c(F)cc(F)cc2F)c2nc(N3C[C@@H](O)[C@@H](O)C3)c(F)cc2c1=O)C(F)(F)F [Example 124, 7-[(3R,4S)-3,4-Dihydroxypyrrolidin-1-yl]-6-fluoro-4-oxo-N-(1,1,1-trifluoro-2-methylpropan-2-yl)-1-(2,4,6-trifluorophenyl)-1,4-dihydro-1,8-naphthyridine-3-carboxamide]
12 nM	97%	–	CC(C)(NC(=O)c1cn(-c2c(F)cc(F)cc2F)c2nc(N3CC[C@H](O)C3)c(F)cc2c1=O)C(F)(F)F [Example 125, 6-Fluoro-7-[(3S)-3-hydroxypyrrolidin-1-yl]-4-oxo-N-(1,1,1-trifluoro-2-methylpropan-2-yl)-1-(2,4,6-trifluorophenyl)-1,4-dihydro-1,8-naphthyridine-3-carboxamide]
2.8 nM	84%	–	CC(C)C(NC(=O)c1cn(-c2c(F)cc(F)cc2Cl)c2nc(N3C[C@@H](O)[C@H](O)C3)c(F)cc2c1=O)C(F)(F)F (stereo partly drawn) [Example 136, 1-(2-Chloro-4,6-difluorophenyl)-7-[(3R,4R)-3,4-dihydroxypyrrolidin-1-yl]-6-fluoro-4-oxo-N-[1,1,1-trifluoro-3-methylbutan-2-yl]-1,4-dihydro-1,8-naphthyridine-3-carboxamide]
